In US11033547B2, “Carboxamide-pyrimidine derivatives as SHP2 antagonists” (Merck Patent GmbH, priority 2019, dated 2021):
Where a name gives a salt, the structure may show the parent alone.

These compounds were tested against Full length SHP2 protein (Recombinant Human SHP-2) (Homo sapiens, UniProt Q06124) (assay: SHP2 biochemical assay (DiFMUP substrate, activating peptide IRSI_2pY)). Settings: DiFMUP substrate, activating peptide IRSI_2pY, 60 min at RT; read-out: SHP-2 Biochemical assay IC50.
Description: The inhibition of SHP2 by compounds of the invention was monitored using the surrogate substrate DiFMUP after protein activation by a peptide bearing two appropriately spaced phosphotyrosine. […] The generation of the DiFMU product by activated SHP2 was monitored through Fluorescence measurement with a PerkinElmer Envision reader.
The inhibitor dose response curves were analyzed with Genedata Screener.

Chain of Full length SHP2 protein (Recombinant Human SHP-2) (Q06124 2-593 limits assumed): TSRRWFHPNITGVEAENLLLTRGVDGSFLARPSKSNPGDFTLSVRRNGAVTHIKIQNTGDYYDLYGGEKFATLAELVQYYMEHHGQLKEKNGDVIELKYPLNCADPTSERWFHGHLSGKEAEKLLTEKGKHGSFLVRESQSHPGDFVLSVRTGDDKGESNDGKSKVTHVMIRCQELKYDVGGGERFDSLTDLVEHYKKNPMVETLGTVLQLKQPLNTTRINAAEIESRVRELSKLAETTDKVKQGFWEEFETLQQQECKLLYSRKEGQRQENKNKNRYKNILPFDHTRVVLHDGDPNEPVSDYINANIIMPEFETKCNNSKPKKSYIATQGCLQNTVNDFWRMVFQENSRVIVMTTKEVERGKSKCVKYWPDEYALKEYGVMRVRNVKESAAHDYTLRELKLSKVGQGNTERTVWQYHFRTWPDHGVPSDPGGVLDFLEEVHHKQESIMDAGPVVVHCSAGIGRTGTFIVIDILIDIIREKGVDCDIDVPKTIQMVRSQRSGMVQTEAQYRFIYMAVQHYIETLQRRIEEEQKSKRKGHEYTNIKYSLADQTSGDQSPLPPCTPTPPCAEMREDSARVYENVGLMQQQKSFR

SMILES | IC50
NCC1CC2CCC(C1)N2c1nc(N)c(-c2cccc(Cl)c2Cl)c(C(N)=O)n1 (centres unmarked) [Compound 12, 6-amino-2-[3-(aminomethyl)-8-azabicyclo[3.2.1]octan-8-yl]-5-(2,3-dichlorophenyl)pyrimidine-4-carboxamide] | 1.6 µM
CC1(N)CCN(c2nc(N)c(-c3cccc(Cl)c3Cl)c(C(=O)NCCO)n2)CC1 [Compound 17, 6-Amino-2-(4-amino-4-methyl-piperidin-1-yl)-5-(2,3-dichlorophenyl)-pyrimidine-4-carboxylic acid (2-hydroxy-ethyl)-amide] | 12 µM
CC1(N)CCN(c2nc(Cl)c(-c3cccc(F)c3)c(C(N)=O)n2)CC1 [Compound 19, 2-(4-Amino-4-methyl-piperidin-1-yl)-6-chloro-5-(3-fluorophenyl)-pyrimidine-4-carboxylic Acid Amide] | 87 µM
CC1(N)CCN(c2nc(N)c(-c3cccc(Cl)c3Cl)c(C(=O)NN)n2)CC1 [Compound 21, 6-Amino-2-(4-amino-4-methyl-piperidin-1-yl)-5-(2,3-dichlorophenyl)-pyrimidine-4-carboxylic Acid Hydrazide] | 1.6 µM
CC1(N)CCN(c2nc(F)c(-c3cccc(F)c3)c(C(N)=O)n2)CC1 [Compound 22, 2-(4-Amino-4-methyl-piperidin-1-yl)-6-fluoro-5-(3-fluorophenyl)-pyrimidine-4-carboxylic Acid Amide] | 21 µM
Cc1nc(N2C3COCC2CC(N)C3)nc(C(N)=O)c1-c1cccc(Cl)c1Cl (centres unmarked) [Compound 33, 2-(7-Amino-3-oxa-9-aza-bicyclo[3.3.1]non-9-yl)-5-(2,3-dichlorophenyl)-6-methyl-pyrimidine-4-carboxylic acid amide] | 2.4 µM
NC(=O)c1nc(N2CCC3(CC2)CC(N)CCO3)nc(N)c1-c1cccc(Cl)c1Cl (centres unmarked) [Compound 38, 6-amino-2-{4-amino-1-oxa-9-azaspiro[5.5]undecan-9-yl}-5-(2,3-dichlorophenyl)pyrimidine-4-carboxamide] | 7.6 µM
NC(=O)c1nc(N2CCC(C3OCCCC3N)CC2)nc(N)c1-c1cccc(Cl)c1Cl (centres unmarked) [Compound 39, 6-amino-2-[4-(3-aminooxan-2-yl)piperidin-1-yl]-5-(2,3-dichlorophenyl)pyrimidine-4-carboxamide] | 6.3 µM
Cc1nc(N2CC3CCC(N)C3C2)nc(C(N)=O)c1-c1cccc(Cl)c1Cl (centres unmarked) [Compound 42, 2-(4-Amino-hexahydro-cyclopenta[c]pyrrol-2-yl)-5-(2,3-dichloro-phenyl)-6-methyl-pyrimidine-4-carboxylic acid amide] | 4.8 µM
Cc1nc(N2CCC2CN)nc(C(N)=O)c1-c1cccc(Cl)c1Cl (centres unmarked) [Compound 46, 2-(2-Aminomethyl-azetidin-1-yl)-5-(2,3-dichloro-phenyl)-6-methyl-pyrimidine-4-carboxylic acid amide] | 5.5 µM
NC[C@@H]1CN(c2nc(N)c(-c3cccc(Cl)c3Cl)c(C(N)=O)n2)C[C@H]1c1ccccc1 [Compound 51, 6-amino-2-[(3R,4R)-3-(aminomethyl)-4-phenylpyrrolidin-1-yl]-5-(2,3-dichlorophenyl)pyrimidine-4-carboxamide] | 1.5 µM
NC(=O)c1nc(NC2CCOC3(C2)CN2CCC3CC2)nc(N)c1-c1cccc(Cl)c1Cl (centres unmarked) [Compound 52, 6-amino-2-({4-azaspiro[bicyclo[2.2.2]octane-2,2′-oxan]-4′-yl}amino)-5-(2,3-dichlorophenyl)pyrimidine-4-carboxamide] | > 10 µM
NCC1(O)CN(c2nc(N)c(-c3cccc(Cl)c3Cl)c(C(N)=O)n2)C1 [Compound 54, 6-amino-2-[3-(aminomethyl)-3-hydroxyazetidin-1-yl]-5-(2,3-dichlorophenyl)-pyrimidine-4-carboxamide] | 7.7 µM
Cc1nc(N2CC3CN(C)CC3C2)nc(C(N)=O)c1-c1cccc(Cl)c1Cl (centres unmarked) [Compound 56, 5-(2,3-Dichloro-phenyl)-6-methyl-2-(5-methyl-hexahydro-pyrrolo[3,4-c]pyrrol-2-yl)-pyrimidine-4-carboxylic acid amide] | 0.96 µM
Cc1nc(N2CCC3CCC(C2)N3)nc(C(N)=O)c1-c1cccc(Cl)c1Cl (centres unmarked) [Compound 68, 2-(3,9-Diaza-bicyclo[4.2.1]-non-3-yl)-5-(2,3-dichloro-phenyl)-6-methyl-pyrimidine-4-carboxylic acid amide] | 6.2 µM

Next, values leading:

IC50 | SMILES
1.1 µM | Cc1nc(N2CCC3(CCC[C@@H]3N)C2)nc(C(N)=O)c1-c1cccc(Cl)c1Cl (stereo in doubt) [Compound 37, 2-((S)-6-Amino-2-aza-spiro[4.4]non-2-yl)-5-(2,3-dichloro-phenyl)-6-methyl-pyrimidine-4-carboxylic acid amide]
3.7 µM | CC1(N)CCN(c2nc(N)c(-c3cccc(F)c3)c(C(N)=O)n2)CC1 [Compound 4, 6-Amino-2-(4-amino-4-methyl-piperidin-1-yl)-5-(3-fluoro-phenyl)pyrimidine-4-carboxylic Acid Amide]
2.7 µM | NC(=O)c1nc(N2CC3CCCC(C2)C3N)nc(N)c1-c1cccc(Cl)c1Cl (centres unmarked) [Compound 6, 6-amino-2-{9-amino-3-azabicyclo[3.3.1]nonan-3-yl}-5-(2,3-dichlorophenyl)pyrimidine-4-carboxamide]
9.6 µM | CC(C)C1N(c2nc(N)c(-c3cccc(Cl)c3Cl)c(C(N)=O)n2)CC12CC(N)C(O)C2 (centres unmarked) [Compound 10, 6-amino-2-[6-amino-7-hydroxy-1-(propan-2-yl)-2-azaspiro[3.4]octan-2-yl]-5-(2,3-dichlorophenyl)pyrimidine-4-carboxamide]
> 10 µM | NC(=O)c1nc(N2C[C@H]3CCCCC[C@@H](C2)[C@@H]3N)nc(N)c1-c1cccc(Cl)c1Cl [Compound 13, 6-amino-5-(2,3-dichlorophenyl)-2-[(1R,7S,11s)-11-amino-9-azabicyclo[5.3.1]undecan-9-yl]pyrimidine-4-carboxamide]
4.7 µM | NCC1CN(c2nc(N)c(-c3cccc(Cl)c3Cl)c(C(N)=O)n2)CC12CCOCC2 (centres unmarked) [Compound 23, 6-amino-2-[4-(aminomethyl)-8-oxa-2-azaspiro[4.5]decan-2-yl]-5-(2,3-dichlorophenyl)pyrimidine-4-carboxamide]
> 10 µM | CC1(N)CCN(c2nc(O)c(-c3cccc(F)c3)c(C(N)=O)n2)CC1 [Compound 25, 2-(4-amino-4-methylpiperidin-1-yl)-5-(3-fluorophenyl)-6-hydroxypyrimidine-4-carboxamide hydrochloride]
1.1 µM | NCC1CN(c2nc(N)c(-c3cccc(Cl)c3Cl)c(C(N)=O)n2)CC12COC2 (centres unmarked) [Compound 34, 6-amino-2-[8-(aminomethyl)-2-oxa-6-azaspiro[3.4]octan-6-yl]-5-(2,3-dichloro-phenyl)pyrimidine-4-carboxamide]
13 µM | Cc1nc(NC2CCC(CN)C2)nc(C(N)=O)c1-c1cccc(Cl)c1Cl (centres unmarked) [Compound 36, 2-(3-Aminomethyl-cyclopentylamino)-5-(2,3-dichloro-phenyl)-6-methyl-pyrimidine-4-carboxylic acid amide]
3.9 µM | NCC1CC2(CCN(c3nc(N)c(-c4cccc(Cl)c4Cl)c(C(N)=O)n3)CC2)CO1 (centres unmarked) [Compound 40, 6-amino-2-[3-(aminomethyl)-2-oxa-8-azaspiro[4.5]decan-8-yl]-5-(2,3-dichlorophenyl)pyrimidine-4-carboxamide]
3.1 µM | Cc1nc(NC2CCCC2CN)nc(C(N)=O)c1-c1cccc(Cl)c1Cl (centres unmarked) [Compound 43, 2-(2-Aminomethyl-cyclopentylamino)-5-(2,3-dichloro-phenyl)-6-methyl-pyrimidine-4-carboxylic acid amide]
11 µM | Cc1nc(N2CC(F)(CN)C2)nc(C(N)=O)c1-c1cccc(Cl)c1Cl [Compound 44, 2-(3-Aminomethyl-3-fluoro-azetidin-1-yl)-5-(2,3-dichloro-phenyl)-6-methyl-pyrimidine-4-carboxylic acid amide]
10 µM | NC(=O)c1nc(N2CC3CCCC(N)C3C2)nc(N)c1-c1cccc(Cl)c1Cl (centres unmarked) [Compound 50, 6-amino-2-(4-amino-octahydro-1H-isoindol-2-yl)-5-(2,3-dichlorophenyl)pyrimidine-4-carboxamide]
1.7 µM | CC1(CN)CN(c2nc(N)c(-c3cccc(Cl)c3Cl)c(C(N)=O)n2)C1 [Compound 55, 6-amino-2-[3-(aminomethyl)-3-methylazetidin-1-yl]-5-(2,3-dichlorophenyl)pyrimidine-4-carboxamide]
> 10 µM | Cc1nc(N2CC(N)(CO)C2)nc(C(N)=O)c1-c1cccc(Cl)c1Cl [Compound 57, 2-(3-Amino-3-hydroxymethyl-azetidin-1-yl)-5-(2,3-dichloro-phenyl)-6-methyl-pyrimidine-4-carboxylic acid amide]
4.4 µM | Cc1nc(N2CCC3(CC3N)C2)nc(C(N)=O)c1-c1cccc(Cl)c1Cl (centres unmarked) [Compound 58, 2-(1-Amino-5-aza-spiro[2.4]hept-5-yl)-5-(2,3-dichloro-phenyl)-6-methyl-pyrimidine-4-carboxylic acid amide]
> 10 µM | CC1(N)CCN(c2ncc(-c3cccc4[nH]cnc34)c(C(N)=O)n2)CC1 [Compound 60, 2-(4-Amino-4-methyl-piperidin-1-yl)-5-(1H-benzoimidazol-4-yl)-pyrimidine-4-carboxylic acid amide]
> 10 µM | CC1(N)CCN(c2ncc(-c3cccc4nonc34)c(C(N)=O)n2)CC1 [Compound 61, 2-(4-Amino-4-methyl-piperidin-1-yl)-5-benzo[1,2,5]-oxadiazol-4-yl-pyrimidine-4-carboxylic acid amide]
> 10 µM | CC1(N)CCN(c2nc(N)c(-c3ccc4cn[nH]c4c3Cl)c(C(N)=O)n2)CC1 [Compound 62, 6-Amino-2-(4-amino-4-methyl-piperidin-1-yl)-5-(7-chloro-1H-indazol-6-yl)-pyrimidine-4-carboxylic acid amide]
3.7 µM | NC(=O)c1nc(N[C@@H]2CCCC[C@@H]2N)nc(N)c1-c1cccc(Cl)c1Cl [Compound 65, 6-amino-2-{[(1R,2S)-2-aminocyclohexyl]amino}-5-(2,3-dichlorophenyl)-pyrimidine-4-carboxamide]
